The compound `CC(C)(C)c1ccc(C(=O)Nc2cn3cc(-c4cn[nH]c4)ccc3n2)cn1` registered a melting point of 238 to 240 °C.
In turn, `O=C(Nc1ccc(F)cc1)c1ccccc1-c1cccc(F)c1` returned a melting point of 147 to 148 °C.
For `CCOC(=O)c1c(CCl)nc2sc3c(c2c1-c1ccc(OC)c(OC)c1)CCCN3C(=O)OCc1ccccc1`, the melting point lay within 178 to 179 °C.
Compound `COc1ccc(C=C2SC(=O)N(CCc3ccccn3)C2=O)cc1-c1cc2c(cc1C)C(C)(C)CCC2(C)C` came in with a melting point of 170 to 171 °C.
Next, `CCc1nc2cc(C(N)=O)c(Cl)cc2n1-c1ccc(CCNC(=O)NS(=O)(=O)c2ccc(C)cc2)cc1`: 152 to 163 °C; `CC(C)C(C)(C(N)=O)N1C(=O)c2cccnc2C1=O` (centres undefined): 176 to 178 °C.
`CCOC(=O)C(C#N)=Cc1ccc(OC)c2c1CC(C)(C)O2` returned a melting point of 112 to 117 °C.
Next, `Cn1cc(-c2ccc(=O)n(Cc3cccc(-c4ncc(OCCO)cn4)c3)n2)cn1`: 182 to 183 °C.
With `CN1C(=O)[C@H](NC(=O)C2Cc3ccccc3O2)N=C(c2ccccc2)c2ccccc21` (some centres undefined) the figure was 141 to 180 °C.
With `COc1ccc(C=CC(=O)Nc2cc(Cl)ccc2C(=O)O)cc1OC` the figure was 255 to 257 °C; with `CCOC(=O)C(=O)CC(=O)c1cn(Cc2ccccc2OC)c2ccccc2c1=O`, 154 to 156 °C; with `CCOC(=O)c1cn(CC)c2cc(-c3csc(CN(CC)C(C)=O)n3)c(F)cc2c1=O`, 160 to 161 °C.
`O=C(O)c1cc(NC(=O)C(CS)Cc2ccccc2)c[nH]1` (centres undefined) showed a melting point of 169 to 172 °C.
With `CCn1ncc2c(NCc3cccc(O)c3)c3ccccc3nc21` the figure was above 240 °C.
Next, `CN(Cc1cc2cc(Cl)ccc2o1)C1CCN(c2ccc(OC[C@@]3(C)Cn4cc([N+](=O)[O-])nc4O3)cc2)CC1`: 207 to 210 °C; `CC(=O)OCC1OC(n2cnc3c(-n4cnc(-c5ccccc5)c4-c4ccccc4)nc(Cl)nc32)C(OC(C)=O)C1OC(C)=O` (centres undefined): 146 °C.
For the compound `CC(C)CC(NC(=O)c1cc(O)c2c(c1)C(=O)c1cccc(O)c1C2=O)C(=O)O` (centres undefined), the melting point was in the range of 204 to 206 °C.
In turn, `Clc1cccc(Cl)c1N=C1NCCN1OCc1ccccc1` came in with a melting point of 115 to 117 °C.
With `O=c1nc(-c2cccc(Cl)c2)c2cc(C3(c4ccc(Cl)cc4)OCCO3)ccc2[nH]1` the figure was 220 °C; with `FC(F)(F)c1cccc(CCc2nnc(-c3ccc4nccn4c3)o2)c1`, 152 to 153 °C.
`O=c1c2c(n(-c3cccc(Cl)c3)c3ncccc13)CCN(Cc1ccccc1)C2` registered a melting point of 157 to 161 °C.
Next, `CCSc1cc(-c2ccc(Cl)cc2Cl)ccc1C#N`: 89 to 92 °C.
Compound `CCCSc1sc(C(=O)OCC)c2c1C(=O)C(Br)CC2` (centres undefined) had a melting point of 93 to 94 °C.
Compound `Brc1cc(Br)c2c(c1)CCN2` yielded a melting point of 164 to 165 °C.
Take `O=C(O)c1ccc(-c2cnc3c(c2)N(Cc2c(F)ccc(F)c2Cl)C(=O)CN3)cc1`: the melting point is above 300 °C.
With `Nc1ccccc1-c1ccc(C(O)CCC(=O)O)cc1` (centres undefined) the figure was 102 to 103 °C; with `O=C(O)C(Cc1ccccc1)NCc1ccccc1` (centres undefined), 219 to 220 °C; with `Cc1c(C(=O)Nc2ccc(N3CCC(N4CCNCC4)CC3)c(C#N)c2)cnn1-c1ccc(Cl)cc1`, 226 °C.
The compound `O=C(Nc1cccc(C(F)(F)F)c1)Nc1ccc(Oc2ncnc3cc[nH]c23)cc1Cl` came in with a melting point of 316 to 319 °C.
Next, `CCOC(=O)C1=C(C(F)(F)F)Nc2n[nH]c(C)c2C1c1ccccc1Cl` (centres undefined): 165 to 168 °C.
Regarding `CCCc1nn(-c2ccc(C(F)(F)F)cn2)cc1CCCOc1cc(CCC(=O)O)n(-c2ccccc2)n1`, the melting point lay in the range of 149 to 150 °C.
With `COC(=O)C1=C(C#N)NC(C)=C(C(=O)OCC(C)(C)C)C1c1ccccc1C#N` (centres undefined) the figure was 173 to 174 °C; with `CCCCCCCNC(=O)Nc1cc(N(C)C)ccc1C(=O)NC1CCN(C(c2ccccc2)c2ccccc2)CC1`, 87 °C; with `COC(=O)c1cc(-c2cccc(C(F)(F)F)c2)c[nH]c1=O`, 195 to 201 °C.
Next, `COC(=O)c1cccc(CC2COc3ccc(OCc4ccc5ccccc5n4)cc3C2O)c1` (centres undefined): 153 to 154 °C.
Compound `CC(C)(C)S(=O)(=O)C(=[N+]=[N-])S(=O)(=O)C(C)(C)C` displayed a melting point of 121 to 122 °C.
Next, `N#CC(C#N)=C1c2cc(N)c(Cl)cc2-c2cc(Cl)c(N)cc21`: 336 to 338 °C; `Fc1c(F)c(F)c(-c2c3ccccc3c(-c3c(F)c(F)c(F)c(F)c3F)c3ccccc23)c(F)c1F`: 337 to 338 °C; `N#Cc1ccc(C=NO)c([N+](=O)[O-])c1`: 162 to 163 °C.
As to `Cc1cccc(-n2cc(-c3ccc4c(c3)N(C(=O)CN3CCN(C)CC3)CCO4)nn2)n1`, the melting point turned out to be 132 °C.
Next, `Cc1ccc(S(=O)(=O)N2C(=O)c3cc4c(cc3[C@H]3[C@@H](C=O)[C@H](O[Si](C)(C)C(C)(C)C)[C@H]5OC(C)(C)O[C@H]5[C@@H]32)OCO4)cc1`: above 200 °C; `Cc1onc(O)c1-c1ccccc1[N+](=O)[O-]`: 197 °C.
Turning to `CCCc1nc2c(N)nc3cc(-c4cncc(CO)c4)ccc3c2n1CC(C)(C)O`, the melting point fell in the range of 225 to 226 °C.
With `CC(C)NC(=O)c1cc(Oc2ccc3c(C(=O)Nc4cccc(C(F)(F)F)c4)cccc3c2)ncn1` the figure was 205 to 208 °C; with `CCOC(=O)C(OCOc1ccc(-c2ccc(Cl)cc2)cc1)(C(F)(F)F)C(F)(F)F`, 42 to 43 °C; with `Cn1c(C(F)(F)F)cc(=O)n(-c2cc(OC(=O)NCC3CCCCC3)c(Cl)cc2F)c1=O`, 132 to 135 °C.
With `Cc1ccc(F)cc1NC(=O)c1cc([N+](=O)[O-])ccc1NC(=O)CF` the figure was 217 to 219 °C; with `Cc1ccccc1NC(=O)CN1C[C@@H](C)N(S(=O)(=O)c2cccc([N+](=O)[O-])c2)[C@@H](C)C1`, 163 to 164 °C.
Next, `COc1c(Cl)ccc(-c2cc(N)c(Cl)c(C(=O)OCc3ccccc3)n2)c1Cl`: 107 to 108 °C; `COc1cc2c(cc1Br)C(C)(C)CCC2(C)C`: 77 to 78 °C; `CN(C)C=C1C(=O)N(c2cccc(Cl)c2)c2ccccc21`: 116 to 118 °C.
Turning to `COC(=O)CCc1cnoc1-c1ccc(Cl)cc1`, the melting point fell in the range of 51 to 52 °C.
With `CN1Cc2[nH]c3ccccc3c2C1` the figure was 110 to 120 °C.
In the case of `N#Cc1c(Cl)sc2[nH]c(=O)c(=O)[nH]c12`, the melting point is above 250 °C.
With `OC1(C2CC2)c2ccccc2OCc2ncccc21` (centres undefined) the figure was 210 to 212 °C.
Next, `CC(C)(C)OC(=O)NCc1cccc(C#N)n1`: 85.9 to 86.5 °C; `N#Cc1ncn2c1[C@@H]1CCN1C(=O)c1ccccc1-2`: 232 to 234 °C; `O=C(Nc1cscc1S(=O)(=O)c1ccc(Cl)cc1)N[C@@H](Cc1ccc(NC(=O)c2c(Cl)cccc2Cl)cc1)C(=O)O`: 202 °C.
`CN(C)c1cccc(C(=O)NCCc2c3n(c4ccccc24)C(=O)CCC3)c1` showed a melting point of 136 °C.

A word on the melting point: it is the temperature, or range, at which the solid turns liquid.
